Measurements from patent US11993574B2, “Pyrazole and imidazole compounds for inhibition of IL-17 and RORgamma” (REATA PHARMACEUTICALS, INC., priority 2018, dated 2024).

What was measured:
Format in all cases: cell-based
[1] = target: T1, Human RAR-related Orphan Receptor Gamma (RORγ) (Homo sapiens, UniProt P51449); test: RORγ assay (GAL4-RORγ hybrid luciferase reporter, Indigo Biosciences); conditions: inverse-agonist activity, GAL4-RORγ reporter cells, 23 hours
T1 sequence (P51449 269-508 limits assumed): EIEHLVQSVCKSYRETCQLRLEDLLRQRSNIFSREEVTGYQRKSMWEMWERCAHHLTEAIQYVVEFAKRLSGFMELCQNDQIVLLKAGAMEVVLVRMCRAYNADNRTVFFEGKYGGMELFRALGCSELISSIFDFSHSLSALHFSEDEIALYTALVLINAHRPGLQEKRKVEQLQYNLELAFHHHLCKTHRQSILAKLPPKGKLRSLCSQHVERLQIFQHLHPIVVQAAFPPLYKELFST
Outline: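 […]engineered human reporter cell line expressing GAL4-DBD/RORγ-LBD hybrid with GAL4-UAS luciferase; constitutive activity measured as inverse agonism. Cells treated with compound (7.8-2000 nM) for 23 h at 37 °C; luminescence normalized to DMSO, IC50 by variable-slope fit, with parallel viability readout to flag non-specific inhibition.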

[2] = system: Nrf2 transcription factor; test: AREc32 luciferase reporter assay; conditions: Homo sapiens; AREc32 cells, 19 hours; concentration required to increase GST ARE luciferase reporter activity by 2-fold; read-out: NRF2 ARE 2-Fold (EC2×)
Outline: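 AREc32 cells (MCF-7 with firefly luciferase under eight rat GSTA2 ARE copies) treated 19 h with compound (0.4-200 nM or 3.9-2000 nM) in triplicate. Luminescence normalized to DMSO as fold-induction, capped at 50-fold. EC2× = concentration giving 2-fold reporter increase, interpolated from variable-slope fit.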

IL-17A = test: IL-17 release from differentiated primary human T-cells (IL-17A HTRF assay); conditions: primary human CD4+ T cells differentiated into Th17 cells, 45-hour incubation, IL-17A in supernatant; read-out: hIL17 IC50
Outline: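 Primary human CD4+ T cells (~2×10^5/well) given compound (2–500 or 4–1000 nM, 0.1% DMSO), CD3/CD28-activated and Th17-differentiated (TGF-β, IL-6, IL-23, IL-1β) for 45 h at 37° C. Supernatant IL-17A by HTRF against standard curve, normalized to vehicle; IC50 by variable-slope regression, with parallel CyQuant viability.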

`C[C@H]1C(=O)C(C#N)=C[C@@]2(C)c3c(c(-c4ccccc4)nn3-c3ccc(-c4ccc(N(C)C)cc4)cc3)CC[C@H]12` [T47] was tested, and the IC50 [1] was 68 nM, the EC (2-fold) [2] was 0.253 µM and the IC50 (IL-17A) was 26 nM.

`C[C@H]1C(=O)C(C#N)=C[C@@]2(C)c3c(c(-c4ccccc4)nn3-c3ccc(OC(F)(F)F)cc3)CC[C@H]12` [T19] showed an IC50 [1] of 85 nM, an EC (2-fold) [2] of 0.247 µM and an IC50 (IL-17A) of 32 nM.

`Cc1nc2c(n1-c1cccc(F)c1)CC[C@@H]1[C@@H](C)C(=O)C(C#N)=C[C@@]21C` [T133] was tested, and the IC50 [1] was 225 nM, the EC (2-fold) [2] was 0.767 µM and the IC50 (IL-17A) was 247 nM.

With `C[C@H]1C(=O)C(C#N)=C[C@@]2(C)c3nc(-c4ccnc(C5CC5)c4)n(-c4cccc(F)c4)c3CC[C@H]12` [T144] the IC50 [1] was 173 nM, the EC (2-fold) [2] was 1.12 µM and the IC50 (IL-17A) was 207 nM.

In the case of `C[C@H]1C(=O)C(C#N)=C[C@@]2(C)c3nc(-c4ccc(C5CC5)nc4)n(-c4cccc(F)c4)c3CC[C@H]12` [T142], the IC50 [1] is reported as 76 nM, the EC (2-fold) [2] is reported as 0.861 µM and the IC50 (IL-17A) is reported as 156 nM.

Compound `Cc1ccc(-n2nc3c(c2-c2ccccc2)CC[C@@H]2[C@@H](C)C(=O)C(C#N)=C[C@@]32C)cc1` [T118] has an IC50 [1] of 122 nM, an EC (2-fold) [2] of 0.635 µM and an IC50 (IL-17A) of 158 nM.

Compound `C[C@H]1C(=O)C(C#N)=C[C@@]2(C)c3c(c(-c4ccccc4)nn3-c3ccc(-c4ccc(CO)cc4)cc3)CC[C@H]12` [T42] has an IC50 [1] of 33 nM, an EC (2-fold) [2] of 0.13 µM and an IC50 (IL-17A) of 35 nM.

`C[C@H]1C(=O)C(C#N)=C[C@@]2(C)c3nc(-c4cccc(Cl)c4)n(-c4cnn(C)c4)c3CC[C@H]12` [T157] gave an IC50 [1] of 103 nM, an EC (2-fold) [2] of 1.28 µM and an IC50 (IL-17A) of 322 nM.

`C[C@H]1C(=O)C(C#N)=C[C@@]2(C)c3c(c(-c4ccccc4F)nn3-c3ccc(-c4ccncn4)cc3)CC[C@H]12` [T93] showed an IC50 [1] of 42 nM, an EC (2-fold) [2] of 0.139 µM and an IC50 (IL-17A) of 37 nM.

In the case of `CC(C)c1ccc(-c2nc3c(n2-c2cccc(F)c2)CC[C@@H]2[C@@H](C)C(=O)C(C#N)=C[C@@]32C)cc1` [T129], the IC50 [1] is reported as 214 nM, the EC (2-fold) [2] is reported as 1.29 µM and the IC50 (IL-17A) is reported as 73 nM.

Work on `COc1ccc(-c2ccc(-n3nc(-c4ccccc4)c4c3[C@]3(C)C=C(C#N)C(=O)[C@H](C)[C@H]3CC4)cc2)cc1` [T46] yielded an IC50 [1] of 65 nM, an EC (2-fold) [2] of 0.219 µM and an IC50 (IL-17A) of 20 nM.

Compound `C[C@H]1C(=O)C(C#N)=C[C@@]2(C)c3c(c(-c4ccc(F)cc4)nn3-c3ccc(-c4cncc(F)c4)cc3)CC[C@H]12` [T105] has an IC50 [1] of 67 nM, an EC (2-fold) [2] of 0.361 µM and an IC50 (IL-17A) of 21 nM.

`C[C@H]1C(=O)C(C#N)=C[C@@]2(C)c3c(c(-c4ccccc4)nn3-c3cccc(-c4cccnc4)c3)CC[C@H]12` [T34] was tested, and the IC50 [1] was 87 nM, the EC (2-fold) [2] was 0.245 µM and the IC50 (IL-17A) was 87 nM.

`C[C@H]1C(=O)C(C#N)=C[C@@]2(C)c3c(c(-c4ccccc4)nn3-c3ccnc4ccccc34)CC[C@H]12` [T8] showed an IC50 [1] of 81 nM, an EC (2-fold) [2] of 0.426 µM and an IC50 (IL-17A) of 73 nM.

Work on `CNc1nn(-c2ccc(-c3ccccc3)cc2)c2c1CC[C@@H]1[C@@H](C)C(=O)C(C#N)=C[C@@]21C` [T79] yielded an IC50 [1] of 140 nM, an EC (2-fold) [2] of 1.04 µM and an IC50 (IL-17A) of 178 nM.

With `C[C@H]1C(=O)C(C#N)=C[C@@]2(C)c3c(c(-c4ccc(CO)cc4)nn3-c3ccc(-c4ccccc4)cc3)CC[C@H]12` [T73] the IC50 [1] was 40 nM, the EC (2-fold) [2] was 0.159 µM and the IC50 (IL-17A) was 30 nM.

`CC(C)c1ccc(-c2nc3c(n2Cc2ccccn2)CC[C@@H]2[C@@H](C)C(=O)C(C#N)=C[C@@]32C)cc1` [T170] was tested, and the IC50 [1] was 103 nM, the EC (2-fold) [2] was 0.602 µM and the IC50 (IL-17A) was 72 nM.

In the case of `C[C@H]1C(=O)C(C#N)=C[C@@]2(C)c3c(c(-c4ccncn4)nn3-c3ccc(-c4ccccc4)cc3)CC[C@H]12` [T48], the IC50 [1] is reported as 45 nM, the EC (2-fold) [2] is reported as 0.187 µM and the IC50 (IL-17A) is reported as 30 nM.

Compound `C[C@H]1C(=O)C(C#N)=C[C@@]2(C)c3c(c(-c4ccncn4)nn3-c3ccc(-c4ccc(F)cc4)cn3)CC[C@H]12` [T56] has an IC50 [1] of 99 nM, an EC (2-fold) [2] of 0.433 µM and an IC50 (IL-17A) of 55 nM.

With `C[C@H]1C(=O)C(C#N)=C[C@@]2(C)c3nc(-c4cnc5ccccc5c4)n(-c4cccc(F)c4)c3CC[C@H]12` [T137] the IC50 [1] was 93 nM, the EC (2-fold) [2] was 0.618 µM and the IC50 (IL-17A) was 240 nM.

`Cc1cnnc(-c2ccc(-n3nc(-c4ccc(F)cc4)c4c3[C@]3(C)C=C(C#N)C(=O)[C@H](C)[C@H]3CC4)cc2)c1` [T179] showed an IC50 [1] of 37 nM, an EC (2-fold) [2] of 0.232 µM and an IC50 (IL-17A) of 45 nM.

Compound `C[C@H]1C(=O)C(C#N)=C[C@@]2(C)c3c(c(-c4ccncn4)nn3-c3ccc(-c4ccccc4)nc3)CC[C@H]12` [T64] has an IC50 [1] of 122 nM, an EC (2-fold) [2] of 0.636 µM and an IC50 (IL-17A) of 144 nM.

`C[C@H]1C(=O)C(C#N)=C[C@@]2(C)c3c(c(-c4cccnc4)nn3-c3ccc(-c4ccnc(CF)c4)cc3)CC[C@H]12` [T180] was tested, and the IC50 [1] was 55 nM, the EC (2-fold) [2] was 0.308 µM and the IC50 (IL-17A) was 49 nM.

`Cc1ccccc1-c1nn(-c2ccc(-c3ccccc3)cc2)c2c1CC[C@@H]1[C@@H](C)C(=O)C(C#N)=C[C@@]21C` [T72] gave an IC50 [1] of 138 nM, an EC (2-fold) [2] of 0.205 µM and an IC50 (IL-17A) of 10 nM.

In the case of `C[C@H]1C(=O)C(C#N)=C[C@@]2(C)c3c(c(NC4CCC4)nn3-c3ccc(-c4ccccc4)cc3)CC[C@H]12` [T78], the IC50 [1] is reported as 62 nM, the EC (2-fold) [2] is reported as 0.534 µM and the IC50 (IL-17A) is reported as 48 nM.

In the case of `CC(C)c1ccc(-c2nc3c(n2Cc2ccncc2)CC[C@@H]2[C@@H](C)C(=O)C(C#N)=C[C@@]32C)cc1` [T171], the IC50 [1] is reported as 260 nM, the EC (2-fold) [2] is reported as 1.01 µM and the IC50 (IL-17A) is reported as 157 nM.

Compound `C[C@H]1C(=O)C(C#N)=C[C@@]2(C)c3c(c(-c4ccccc4)nn3-c3ccncc3)CC[C@H]12` [T7] has an IC50 [1] of 158 nM, an EC (2-fold) [2] of 0.265 µM and an IC50 (IL-17A) of 170 nM.

`C[C@H]1C(=O)C(C#N)=C[C@@]2(C)c3nn(-c4ccc(OC(F)(F)F)cc4)c(-c4ccccc4)c3CC[C@H]12` [T20] showed an IC50 [1] of 115 nM, an EC (2-fold) [2] of 0.927 µM and an IC50 (IL-17A) of 94 nM.

`C[C@H]1C(=O)C(C#N)=C[C@@]2(C)c3c(c(-c4cncnc4)nn3-c3ccc(-c4ccccc4)cc3)CC[C@H]12` [T70] gave an IC50 [1] of 75 nM, an EC (2-fold) [2] of 0.472 µM and an IC50 (IL-17A) of 58 nM.

In the case of `C[C@H]1C(=O)C(C#N)=C[C@@]2(C)c3c(c(-c4ccccc4)nn3-c3ccc(-c4cccc(CO)c4)cc3)CC[C@H]12` [T45], the IC50 [1] is reported as 44 nM, the EC (2-fold) [2] is reported as 0.147 µM and the IC50 (IL-17A) is reported as 22 nM.

Work on `CC(C)c1ccc(-c2nc3c(n2CCO)CC[C@@H]2[C@@H](C)C(=O)C(C#N)=C[C@@]32C)cc1` [T172] yielded an IC50 [1] of 178 nM, an EC (2-fold) [2] greater than 2 µM and an IC50 (IL-17A) greater than 500 nM.

`C[C@H]1C(=O)C(C#N)=C[C@@]2(C)c3c(c(-c4ccccc4F)nn3-c3nc4ccccc4s3)CC[C@H]12` [T92] showed an IC50 [1] of 340 nM, an EC (2-fold) [2] of 0.491 µM and an IC50 (IL-17A) of 28 nM.
